Like-named read-outs stand apart in the source and are kept apart here.
Legend:
LXR α LBD protein = LXR α LBD protein (Homo sapiens (Human), UniProt Q13133); assay: LXR α radioligand binding assay (SPA, [3H]T0901317 competition)
LXR β LBD protein = LXR β LBD protein (Homo sapiens (Human), UniProt P55055); assay: LXR β radioligand binding assay (SPA, [3H]T0901317 competition); details: competition with 15 nM [3H]T0901317, LXRβ LBD
LBD of LXRα = LBD of LXRα (Homo sapiens (Human), UniProt Q13133); assay: LXR luciferase transcriptional reporter gene assay, LXRα; type: cell-based; details: HEK293 cells, Gal4-LXRα LBD, 16 h, read-out: LXRα CELL EC50
LBD of LXRβ [1] = target: T1, LBD of LXRβ (Homo sapiens (Human), UniProt P55055); assay: cell-based
LBD of LXRβ [2] = target: T1, LBD of LXRβ
[3] = competition with 15 nM [3H]T0901317, LXRα LBD

T1 sequence (P55055 222-460): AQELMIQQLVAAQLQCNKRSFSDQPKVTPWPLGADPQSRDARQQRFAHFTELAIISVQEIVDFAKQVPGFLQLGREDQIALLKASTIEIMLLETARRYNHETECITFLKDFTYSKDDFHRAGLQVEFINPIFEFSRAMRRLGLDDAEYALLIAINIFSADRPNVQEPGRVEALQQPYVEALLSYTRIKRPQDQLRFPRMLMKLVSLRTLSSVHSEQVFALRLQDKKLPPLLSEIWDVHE
Chain of LXR β LBD protein (P55055 222-460): as above
Chain of LXR α LBD protein (Q13133 209-447): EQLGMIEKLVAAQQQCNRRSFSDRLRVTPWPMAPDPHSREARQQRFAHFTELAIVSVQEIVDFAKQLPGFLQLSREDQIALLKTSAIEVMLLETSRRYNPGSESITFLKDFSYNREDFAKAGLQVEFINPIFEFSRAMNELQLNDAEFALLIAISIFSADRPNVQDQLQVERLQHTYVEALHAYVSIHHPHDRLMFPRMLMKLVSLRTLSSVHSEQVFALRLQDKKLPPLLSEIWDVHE
Chain of LBD of LXRα (Q13133 209-447): as above

| SMILES | Ki (LXR α LBD protein; read-out: LXRα BINDING Ki) [µM] | Ki (LXR β LBD protein) [µM] | EC50 (LBD of LXRα) [µM] | EC50 (LBD of LXRβ [1]) [µM] | Ki (LXR α LBD protein; [3]) [µM] | EC50 (LBD of LXRβ [2]) [µM] |
| --- | --- | --- | --- | --- | --- | --- |
| CC(C)[C@H]1c2nc3cc(CO)c(S(C)(=O)=O)cc3n2CCN1c1ncc(C(=O)O)c(C(F)(F)F)n1 (single isomer, unassigned) [Compound E14b] | > 3.33 | > 2.5 | > 20 | > 20 |  |  |
| CC(C)C1c2nc3ccc(S(C)(=O)=O)cc3n2CCN1c1ncc(C(N)=O)c(C(F)(F)F)n1 (racemic) [Compound E5, 2-(1-isopropyl-7-(methylsulfonyl)-3,4-dihydrobenzo[4,5]imidazo[1,2-a]pyrazin-2(1H)-yl)-4-(trifluoromethyl)pyrimidine-5-carboxamide] |  | > 2.5 | > 20 | 2.69 | > 3.33 |  |
| Cc1nc(N2CCn3c(nc4cc(CO)c(S(C)(=O)=O)cc43)[C@H]2C(C)C)ncc1CO [Compound E19, (R)-(2-(8-(hydroxymethyl)-1-isopropyl-7-(methylsulfonyl)-3,4-dihydrobenzo[4,5]imidazo[1,2-a]pyrazin-2(1H)-yl)-4-methylpyrimidin-5-yl)methanol] |  | > 2.5 | > 20 | > 20 | > 3.33 |  |
| CCOC(=O)c1cnc(N2CCn3c(nc4ccc(S(C)(=O)=O)cc43)C2C(C)C)nc1C(F)(F)F (racemic) [Compound E3, Ethyl 2-(1-isopropyl-7-(methylsulfonyl)-3,4-dihydrobenzo[4,5]imidazo[1,2-a]pyrazin-2(1H)-yl)-4-(trifluoromethyl)pyrimidine-5-carboxylate] |  | 1.16 | 17.3 | 4.62 | > 3.33 |  |
| CC(C)[C@@H]1c2nc3cc(CO)c(S(C)(=O)=O)cc3n2CCN1c1ncc(C(=O)O)c(C(F)(F)F)n1 (single isomer, unassigned) [Compound E14a] | > 3.33 | > 2.5 | > 20 | 7.54 |  |  |
| CNC(=O)c1cnc(N2CCn3c(nc4cc(CO)c(S(C)(=O)=O)cc43)[C@@H]2C(C)C)nc1C(F)(F)F (single isomer, unassigned) [Compound E16b] | > 3.33 |  | > 20 |  |  |  |
| CC(O)c1cnc(N2CCn3c(cc4ccc(S(C)(=O)=O)cc43)C2C(C)C)nc1C(F)(F)F (single isomer, unassigned) [Compound E24a, 1-(2-(1-isopropyl-7-(methylsulfonyl)-3,4-dihydropyrazino[1,2-a]indol-2(1H)-yl)-4-(trifluoromethyl)pyrimidin-5-yl)ethanol] |  | 0.007 |  |  |  | 0.134 |
| CNC(=O)c1cnc(N2CCn3c(nc4cc(CO)c(S(C)(=O)=O)cc43)[C@H]2C(C)C)nc1C(F)(F)F (single isomer, unassigned) [Compound E16a] | > 3.33 |  | > 20 |  |  |  |
